Measurements: US9221814B2, “Heterocyclic guanidine F1F0-atpase inhibitors and therapeutic uses thereof” (Lycera Corporation, priority 2012, dated 2015)
pEC50, pIC50: −log10 of the molar value. Where two headings read alike, the source gives them in different places.

Columns and labels:
Ramos cells = assay: Cytotoxicity in Ramos cells; type: cell-based; conditions: detection limit EC50=16 μM, read-out: Ramos Cell EC50
Description: (§1) Exemplary compounds described in above Examples were tested for activity against F1F0-ATPase by measuring the ability of the compounds to inhibit ATP synthesis. In addition, the compounds were assessed for cytotoxicity in Ramos cells. Inhibition of F1F0-ATPase activity in synthesizing ATP and cytotoxicity in Ramos cells were measured according to the procedures described in K. M. Johnson et al. Chemistry & Biology 2005, 12, 485-496.

F1F0-ATPase = molecular target: T1, F1F0-ATPase (Bos taurus, UniProt P13621); assay: Inhibition of F1F0-ATPase activity in synthesizing ATP (ATP synthesis inhibition); type: biochemical; conditions: detection limit IC50=16 μM, read-out: ATP Syn IC50
T1 construct: from tissue
Description: as §1

| Structure (SMILES) | pEC50 (Ramos cells) | pIC50 (F1F0-ATPase) | pEC50 (Ramos cells; Homo sapiens) |
| --- | --- | --- | --- |
| Cn1cc(C(=O)/N=C(\Nc2cc(-c3ccc(O)c(F)c3)n[nH]2)Nc2ccc(F)cc2F)c(C(F)(F)F)n1 [Compound A-169] | > 5.30 | > 5.30 |  |
| Cn1cc(C(=O)/N=C(/Nc2cccc(O)c2)Nc2cc(-c3ccc(O)c(F)c3)n[nH]2)c(C(F)(F)F)n1 [Compound A-170] | > 5.30 | 4.80 to 5.30 |  |
| Cn1cc(C(=O)N=C(Nc2cc(-c3ccc(O)c(F)c3)n[nH]2)Nc2ccccc2Cl)c(C(F)(F)F)n1 [Compound A-171] |  | > 5.30 | > 5.30 |
| Cn1cc(C(=O)/N=C(/Nc2ccc(F)c(C#N)c2)Nc2cc(-c3ccc(O)c(F)c3)n[nH]2)c(C(F)(F)F)n1 [Compound A-172] | < 4.80 | 4.80 to 5.30 |  |
| Cc1cc(F)ccc1N/C(=N/C(=O)c1cn(C)nc1C(F)(F)F)Nc1cc(-c2ccc(O)c(F)c2)n[nH]1 [Compound A-173] | > 5.30 | > 5.30 |  |
| Cn1cc(C(=O)/N=C(/Nc2cc(F)cc(F)c2)Nc2cc(-c3ccc(O)c(F)c3)n[nH]2)c(C(F)(F)F)n1 [Compound A-174] | > 5.30 | > 5.30 |  |
| CC(C)c1ccc(N/C(=N/C(=O)c2cn(C)nc2C(F)(F)F)Nc2cc(-c3ccc(O)c(F)c3)n[nH]2)cc1 [Compound A-175] | > 5.30 | 4.80 to 5.30 |  |
| Cn1cc(C(=O)/N=C(/Nc2ccc(F)c(F)c2)Nc2cc(-c3ccc(O)c(F)c3)n[nH]2)c(C(F)(F)F)n1 [Compound A-176] | > 5.30 | > 5.30 |  |
| Cn1cc(C(=O)/N=C(\Nc2cc(-c3ccc(O)c(F)c3)n[nH]2)Nc2cccc(Cl)c2F)c(C(F)(F)F)n1 [Compound A-177] | > 5.30 | > 5.30 |  |
| Cn1cc(C(=O)/N=C(\Nc2cc(-c3cc(O)ccc3F)n[nH]2)NC(C)(C)C)c(C(F)(F)F)n1 [Compound A-178] | 4.80 to 5.30 | 4.80 to 5.30 |  |
| CC(C)CN/C(=N/C(=O)c1cn(C)nc1C(F)(F)F)Nc1cc(-c2cc(O)ccc2F)n[nH]1 [Compound A-179] | < 4.80 | > 5.30 |  |
| Cn1cc(C(=O)/N=C(/Nc2cc(F)cc(Cl)c2)Nc2cc(-c3cc(O)ccc3F)n[nH]2)c(C(F)(F)F)n1 [Compound A-180] | > 5.30 | 4.80 to 5.30 |  |
| Cn1cc(C(=O)/N=C(\Nc2cc(-c3cc(O)ccc3Cl)n[nH]2)NC(C)(C)C)c(C(F)(F)F)n1 [Compound A-181] | 4.80 to 5.30 | > 5.30 |  |
| CC(C)CNC(=NC(=O)c1cn(C)nc1C(F)(F)F)Nc1cc(-c2cc(O)ccc2Cl)n[nH]1 [Compound A-182] |  | > 5.30 | 4.80 to 5.30 |
| Cn1cc(C(=O)/N=C(/Nc2cc(F)cc(Cl)c2)Nc2cc(-c3cc(O)ccc3Cl)n[nH]2)c(C(F)(F)F)n1 [Compound A-183] | 4.80 to 5.30 | > 5.30 |  |
| Cc1c(Cl)cccc1N/C(=N/C(=O)c1cn(C)nc1C(F)(F)F)Nc1cc(-c2ccc(O)c(F)c2)n[nH]1 [Compound A-184] | > 5.30 | > 5.30 |  |
| Cc1ccccc1N/C(=N/C(=O)c1cn(C)nc1C(F)(F)F)Nc1cc(-c2ccc(O)c(F)c2)n[nH]1 [Compound A-185] | > 5.30 | > 5.30 |  |
| Cc1ccc(Cl)cc1N/C(=N/C(=O)c1cn(C)nc1C(F)(F)F)Nc1cc(-c2ccc(O)c(F)c2)n[nH]1 [Compound A-186] | < 4.80 | 4.80 to 5.30 |  |
| Cc1cc(Cl)ccc1N/C(=N/C(=O)c1cn(C)nc1C(F)(F)F)Nc1cc(-c2ccc(O)c(F)c2)n[nH]1 [Compound A-187] | > 5.30 | > 5.30 |  |
| Cc1oncc1C(=O)/N=C(\Nc1cc(-c2ccc(F)cc2)n[nH]1)NC(C)(C)C [Compound A-188] | > 5.30 | > 5.30 |  |
| Cn1cc(C(=O)/N=C(/Nc2cc(F)cc(Cl)c2)Nc2cc(-c3ccc(O)c(F)c3)n[nH]2)c(C(F)(F)F)n1 [Compound A-189] | > 5.30 | > 5.30 |  |
| Cc1cc(C(=O)/N=C(\Nc2cc(-c3ccc(F)cc3)n[nH]2)NC(C)(C)C)c(C)o1 [Compound A-190] | 4.80 to 5.30 | > 5.30 |  |
